Results reported in ChEMBL document CHEMBL4400570, “Designing of acyl sulphonamide based quinoxalinones as multifunctional aldose reductase inhibitors” (Bioorg Med Chem, 2019).

Columns and labels:
[1] = biological target: Aldo-keto reductase family 1 member B1 (Rattus norvegicus, UniProt P07943); assay: Inhibition of Wistar rat lens ALR2 using L-glyceraldehyde as substrate preincubated for 10 mins followed by substrate addition and measured for 4 mins by spectrophotometric method
[2] = Octanol-buffer partition coefficient, log D of the compound at pH 7.4 measured after 24 hrs by HPLC based shake flask assay; type: physicochemical
[3] = Antioxidant activity assessed as DPPH radical scavenging activity at 100 uM relative to control; type: functional
[4] = Antioxidant activity assessed as DPPH radical scavenging activity at 50 uM relative to control; type: functional
[5] = Antioxidant activity assessed as DPPH radical scavenging activity at 10 uM relative to control; type: functional
[6] = Antioxidant activity assessed as DPPH radical scavenging activity at 5 uM relative to control; type: functional
Brain [7] = assay: Antioxidant activity in rat brain homogenate assessed as inhibition of FeCl2/ascorbic acid-induced lipid peroxidation by measuring reduction in TBARS level at 100 uM measured after 30 mins by spectrophotometric method relative to control; type: functional, tissue-based
[8] = biological target: Aldo-keto reductase family 1 member A1 (Rattus norvegicus, UniProt P51635); assay: Inhibition of Wistar rat kidney ALR1 using sodium D-glucuronate as substrate preincubated for 10 mins followed by substrate addition and measured for 4 mins by spectrophotometric method
Chain of Aldo-keto reductase family 1 member A1 (P51635 whole entry, looked up): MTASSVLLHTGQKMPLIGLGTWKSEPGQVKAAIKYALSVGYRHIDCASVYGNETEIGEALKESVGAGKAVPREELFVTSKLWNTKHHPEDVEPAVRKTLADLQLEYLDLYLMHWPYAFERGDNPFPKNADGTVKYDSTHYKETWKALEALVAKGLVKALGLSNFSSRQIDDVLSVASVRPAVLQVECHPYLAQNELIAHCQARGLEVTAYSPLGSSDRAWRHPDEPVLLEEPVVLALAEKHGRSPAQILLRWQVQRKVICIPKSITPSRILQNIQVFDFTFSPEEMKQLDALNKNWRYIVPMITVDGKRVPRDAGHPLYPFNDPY

Rattus norvegicus = organism: Rattus norvegicus; assay: Selectivity index, ratio of IC50 for Wistar rat kidney ALR1 to IC50 for Wistar rat lens ALR2
[9] = Antioxidant activity assessed as DPPH radical scavenging activity at 1 uM relative to control; type: functional
Brain [10] = assay: Antioxidant activity in rat brain homogenate assessed as inhibition of FeCl2/ascorbic acid-induced lipid peroxidation by measuring reduction in TBARS level at 50 uM measured after 30 mins by spectrophotometric method relative to control; type: functional, tissue-based
[11] = biological target: Aldo-keto reductase family 1 member B1 (Rattus norvegicus) (UniProt P07943); assay: Inhibition of Wistar rat lens ALR2 at 10 uM using L-glyceraldehyde as substrate preincubated for 10 mins followed by substrate addition and measured for 4 mins by spectrophotometric method relative to control
[12] = biological target: Aldo-keto reductase family 1 member B1 (Rattus norvegicus) (UniProt P07943); assay: Inhibition of Wistar rat lens ALR2 at 100 uM using L-glyceraldehyde as substrate preincubated for 10 mins followed by substrate addition and measured for 4 mins by spectrophotometric method relative to control

## O=C(Cn1c(=O)c(Oc2ccc(F)cc2)nc2ccccc21)NS(=O)(=O)C(F)(F)F
[1]
  IC50: 38.1 µM

## COc1cc(/C=C/c2nc3ccccc3n(CC(=O)O)c2=O)ccc1O
[2]
  logD at 24 h: -2.66
[3]
  Activity: 94%
[4]
  Activity: 73.6%
[5]
  Activity: 44.4%
[6]
  Activity: 21.1%
Brain [7]
  inhibition: 56.1%

## O=C(Cn1c(=O)c(/C=C/c2ccccc2)nc2ccccc21)NS(=O)(=O)C(F)(F)F
[1]
  IC50: 6.38 µM
[8]
  IC50: 29.9 µM
Rattus norvegicus
  Ratio IC50: 4.68
[2]
  logD at 24 h: 2.88
[3]
  Activity: 58.5%
[4]
  Activity: 35.1%
[5]
  Activity: 6.4%
Brain [7]
  inhibition: 20.6%

## O=C(Cn1c(=O)c(Oc2ccc(Cl)cc2)nc2ccccc21)NS(=O)(=O)C(F)(F)F
[1]
  IC50: 40.6 µM

## Cc1c(C)c2c(c(C)c1O)CCC(C)(C(=O)O)O2 (stereo not given)
[3]
  Activity: 96.5%
[4]
  Activity: 94.7%
[5]
  Activity: 77.9%
[6]
  Activity: 39.3%
[9]
  Activity: 8.2%
Brain [7]
  inhibition: 74.1%
Brain [10]
  inhibition: 36.6%

## CS(=O)(=O)NC(=O)Cn1c(=O)c(/C=C/c2ccccc2)nc2ccccc21
[1]
  IC50: 35.2 µM

## O=C(Cn1c(=O)c(-c2ccc(O)c(O)c2)nc2ccccc21)NS(=O)(=O)C(F)(F)F
[1]
  IC50: 4.64 µM
[8]
  IC50: 57.9 µM
Rattus norvegicus
  Ratio IC50: 12.5
[3]
  Activity: 92.3%
[4]
  Activity: 89.6%
[5]
  Activity: 81.4%
[6]
  Activity: 46%
[9]
  Activity: 6.8%
Brain [7]
  inhibition: 58.7%

## O=C(Cn1c(=O)c(-c2ccc(O)cc2)nc2ccccc21)NS(=O)(=O)C(F)(F)F
[1]
  IC50: 23.6 µM

## COc1ccc(Oc2nc3ccccc3n(CC(=O)NS(=O)(=O)C(F)(F)F)c2=O)cc1
[1]
  IC50: 55.1 µM

## COc1cc(/C=C/c2nc3ccccc3n(CC(=O)NS(=O)(=O)C(F)(F)F)c2=O)ccc1O
[1]
  IC50: 3.27 µM
[8]
  IC50: 23.9 µM
Rattus norvegicus
  Ratio IC50: 7.3
[2]
  logD at 24 h: 1.05
[3]
  Activity: 89.8%
[4]
  Activity: 81.9%
[5]
  Activity: 52.2%
[6]
  Activity: 27.7%
Brain [7]
  inhibition: 61.9%

## O=C(O)Cn1c(=O)c(/C=C/c2ccc(O)c(O)c2)nc2ccccc21
[2]
  logD at 24 h: -2.59
[3]
  Activity: 95.4%
[4]
  Activity: 89.2%
[5]
  Activity: 46%
[6]
  Activity: 21.8%
Brain [7]
  inhibition: 59.5%

## O=C(Cn1c(=O)c(Oc2ccc(O)cc2)nc2ccccc21)NS(=O)(=O)C(F)(F)F
[1]
  IC50: 10.1 µM
[8]
  IC50: 73.6 µM
Rattus norvegicus
  Ratio IC50: 7.26
[3]
  Activity: 8.1%
Brain [7]
  inhibition: 12.3%

## COc1ccc(/C=C/c2nc3ccccc3n(CC(=O)NS(=O)(=O)C(F)(F)F)c2=O)cc1OC
[1]
  IC50: 15.9 µM
[8]
  IC50: 42.5 µM
Rattus norvegicus
  Ratio IC50: 2.67

## O=C(Cn1c(=O)c(/C=C/c2ccc(O)cc2)nc2ccccc21)NS(=O)(=O)C(F)(F)F
[1]
  IC50: 0.627 µM
[8]
  IC50: 27.7 µM
Rattus norvegicus
  Ratio IC50: 44.2
[2]
  logD at 24 h: 1.73
[3]
  Activity: 56.2%
[4]
  Activity: 38.9%
[5]
  Activity: 13.2%
Brain [7]
  inhibition: 38.6%

## O=C(O)Cn1c(=O)c(/C=C/c2ccc(O)cc2)nc2ccccc21
[2]
  logD at 24 h: -1.63

## O=C(Cn1c(=O)c(/C=C/c2ccc(F)cc2)nc2ccccc21)NS(=O)(=O)C(F)(F)F
[1]
  IC50: 14.3 µM
[8]
  IC50: 29.2 µM
Rattus norvegicus
  Ratio IC50: 2.05

## O=C(Cn1c(=O)c(Oc2ccccc2)nc2ccccc21)NS(=O)(=O)C(F)(F)F
[1]
  IC50: 54 µM

## O=C(Cn1c(=O)c(-c2ccc(C(F)(F)F)cc2)nc2ccccc21)NS(=O)(=O)C(F)(F)F
[1]
  IC50: 34 µM

## NC(=O)Cn1c(=O)c(/C=C/c2ccccc2)nc2ccccc21
[11]
  inhibition: 24.6%

## O=C(Cn1c(=O)c(-c2ccc(F)cc2)nc2ccccc21)NS(=O)(=O)C(F)(F)F
[1]
  IC50: 71.9 µM

## COc1ccc(-c2nc3ccccc3n(CC(=O)NS(=O)(=O)C(F)(F)F)c2=O)cc1OC
[1]
  IC50: 38.7 µM

## O=C(Cn1c(=O)c(Oc2ccc(Br)cc2)nc2ccccc21)NS(=O)(=O)C(F)(F)F
[1]
  IC50: 74.7 µM

## NC(=O)Cn1c(=O)c(/C=C/c2ccc(F)cc2)nc2ccccc21
[11]
  inhibition: 26.5%

## O=C(Cn1c(=O)c(/C=C/c2ccc(O)c(O)c2)nc2ccccc21)NS(=O)(=O)C(F)(F)F
[1]
  IC50: 0.1 µM
[8]
  IC50: 9.16 µM
Rattus norvegicus
  Ratio IC50: 91.6
[2]
  logD at 24 h: -1.08
[5]
  Activity: 82.1%
[6]
  Activity: 51.9%
[9]
  Activity: 11%
Brain [7]
  inhibition: 73.5%
Brain [10]
  inhibition: 39%

## O=C(O)Cn1c(=O)c(/C=C/c2ccccc2)nc2ccccc21
[2]
  logD at 24 h: 0.05

## CS(=O)(=O)NC(=O)Cn1c(=O)c(-c2ccccc2)nc2ccccc21
[12]
  inhibition: 35.9%

## O=C(Cn1c(=O)c(-c2ccccc2)nc2ccccc21)NS(=O)(=O)C(F)(F)F
[1]
  IC50: 75.2 µM

## CS(=O)(=O)NC(=O)Cn1c(=O)c(Oc2ccccc2)nc2ccccc21
[12]
  inhibition: 41.7%
